pIC50: −log10 of the molar value. Blank lines part the entries; values can stand above or below the compound they belong to. The source made the active and inactive calls. The rule behind the calls is not given here.
Key:
[1] = test system: RS4-11; experiment: Antiproliferative activity against human RS4;11 cells harbouring p53 mutant assessed as inhibition of cell growth measured after 4 days by WST-8 assay; type: functional, cell-based; settings: RS4-11, 96 h
[2] = test system: OCI-AML2; experiment: Antiproliferative activity against human OCI-AML2 cells assessed as inhibition of cell growth measured after 4 days by WST-8 assay; type: functional, cell-based; settings: OCI-AML2, 96 h
[3] = test system: SIG-M5; experiment: Antiproliferative activity against human SIG-M5 cells assessed as inhibition of cell growth measured after 4 days by WST-8 assay; type: functional, cell-based; settings: SIG-M5, 96 h
[4] = test system: ML-2; experiment: Antiproliferative activity against human ML-2 cells assessed as inhibition of cell growth measured after 4 days by WST-8 assay; type: functional, cell-based; settings: ML-2, 96 h
[5] = test system: MOLM-14; experiment: Antiproliferative activity against human MOLM-14 cells assessed as inhibition of cell growth measured after 4 days by WST-8 assay; type: functional, cell-based; settings: MOLM-14, 96 h
[6] = test system: MOLM-13; experiment: Antiproliferative activity against human MOLM-13 cells assessed as inhibition of cell growth measured after 4 days by WST-8 assay; type: functional, cell-based; settings: MOLM-13, 96 h
[7] = test system: RS4-11; experiment: Antiproliferative activity against human RS4;11 cells harbouring p53 wild type assessed as inhibition of cell growth measured after 4 days by WST-8 assay; type: functional, cell-based; settings: RS4-11, 96 h
[8] = test system: OCI-AML-5; experiment: Antiproliferative activity against human OCI-AML5 cells assessed as inhibition of cell growth measured after 4 days by WST-8 assay; type: functional, cell-based; settings: OCI-AML-5, 96 h
[9] = test system: RS4-11; experiment: Antiproliferative activity against human RS4;11 cells assessed as inhibition of cell growth measured after 4 days by WST-8 assay; type: functional, cell-based; settings: RS4-11, 96 h
[10] = test system: RS4-11; experiment: Antitumor activity against human RS4;11 cells xenografted in SCID mouse model assessed as tumor regression at 50 mg/kg, iv qd administered every other for 2 weeks and measured upto 30 days by caliper method relative to control; type: functional; settings: time <= 30 day
[11] = test system: MV4-11; experiment: Antiproliferative activity against human MV4-11 cells assessed as inhibition of cell growth measured after 4 days by WST-8 assay; type: functional, cell-based; settings: MV4-11, 96 h
[12] = test system: OCI-AML-3; experiment: Antiproliferative activity against human OCI-AML-3 cells assessed as inhibition of cell growth measured after 4 days by WST-8 assay; type: functional, cell-based; settings: OCI-AML-3, 96 h
[13] = Toxicity in SCID mouse at 50 mg/kg, iv; type: organism-based; settings: in vivo
[14] = test system: MV4-11; experiment: Antiproliferative activity against human MV4-11 cells assessed as inhibition of cell growth measured after 4 days in presence of lenalidomide by WST-8 assay; type: functional, cell-based; settings: time 4.0 day
[15] = test system: RS4-11; experiment: Upregulation of p21 mRNA level in human RS4;11 cells at 300 nM measured after 3 hrs by qRT-PCR analysis; type: functional, cell-based
[16] = test system: RS4-11; experiment: Effect of p53 mRNA level in human RS4;11 cells at 300 nM by qRT-PCR analysis; type: functional, cell-based
[17] = test system: MV4-11; experiment: Upregulation of MDM2 mRNA level in human MV4-11 cells at 300 nM by qRT-PCR analysis; type: functional, cell-based
[18] = test system: RS4-11; experiment: Upregulation of MDM2 mRNA level in human RS4;11 cells at 300 nM measured after 3 hrs by qRT-PCR analysis; type: functional, cell-based
[19] = test system: MV4-11; experiment: Upregulation of PUMA mRNA level in human MV4-11 cells at 300 nM by qRT-PCR analysis; type: functional, cell-based
[20] = test system: MV4-11; experiment: Upregulation of p21 mRNA level in human MV4-11 cells at 300 nM by qRT-PCR analysis; type: functional, cell-based
[21] = test system: RS4-11; experiment: Antiproliferative activity against human RS4;11 cells assessed as inhibition of cell growth measured after 4 days in presence of lenalidomide by WST-8 assay; type: functional, cell-based; settings: time 4.0 day
[22] = test system: RS4-11; experiment: Upregulation of PUMA mRNA level in human RS4;11 cells at 300 nM measured after 3 hrs by qRT-PCR analysis; type: functional, cell-based

pIC50 [1]: 7.30
pIC50 [2]: 6.95
pIC50 [5]: 7.12
pIC50 [6]: 7.43
pIC50 [7]: 8.40
pIC50 [8]: 6.83
pIC50 [9]: 8.52
pIC50 [11]: 7.85
pIC50 [12]: 5.11
SMILES: O=C1CCC(N2Cc3c(C#CC4CCN(C(=O)c5ccc(NC(=O)[C@@H]6NC7(CCCCC7)[C@@]7(C(=O)Nc8cc(Cl)ccc87)[C@H]6c6cccc(Cl)c6F)cc5)CC4)cccc3C2=O)C(=O)N1 (stereo partly specified)
pIC50 [3]: 6.99
pIC50 [4]: 7.96
Activity [10]: 100%

pIC50 [1]: 6.74
pIC50 [7]: 8.22
SMILES: O=C1CCC(N2Cc3c(NCc4cn(CCCNC(=O)c5ccc(NC(=O)[C@@H]6NC7(CCCCC7)[C@@]7(C(=O)Nc8cc(Cl)ccc87)[C@H]6c6cccc(Cl)c6F)cc5)cn4)cccc3C2=O)C(=O)N1 (stereo partly specified)
Activity [13]: Toxic

pIC50 [9]: 6.75
pIC50 [11]: 7.03
SMILES: O=C(N[C@H]1CC[C@H](C(=O)O)CC1)[C@@H]1NC2(CCCCC2)[C@@]2(C(=O)Nc3cc(Cl)ccc32)[C@H]1c1cccc(Cl)c1F
Activity [14]: Active; Compound Showed Minimal Effect
Activity [15]: Active; Least Effect
Activity [16]: inactive
Activity [17]: Active; Less Effective Than Md-265
Activity [18]: Active; Least Effect
Activity [19]: Active; Less Effective Than Md-265
Activity [20]: Active; Less Effective Than Md-265
Activity [21]: Active; Compound Showed Modest Inhibition Of Cell Growth
Activity [22]: Active; Least Effect
